# Test results from PubChem BioAssay AID256 (DTP/NCI, 2004).
# “And” between values parts separate entries of the source, which are not always exact repeats. Equal entries are not always repeated. Inconclusive results and toxic doses are left out.
# Test system: CD2F1 mice, L1210 leukemia ip, survival T/C
# Experiment: NCI In Vivo Anticancer Drug Screen. Data for tumor model L1210 Leukemia (intraperitoneal) in CD2F1 (CDF1) mice
# Conditions: higher = longer survival
# Outline: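 Read-out first: treated-group measurement over vehicle-control measurement, expressed as a ratio. Animals bore a transplanted tumor line and were dosed with compound or vehicle.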
compound,measurement,setting,value
CN(Cc1cnc2nc(N)nc(N)c2n1)c1ccc(C(=O)N[C@@H](CCC(=O)O)C(=O)O)cc1,T/C,"endpoint: mean survival time, dose: 0.13 mg/kg/injection, schedule: Q01DX009 (ip), vehicle: saline",119 % of control
same,T/C,"endpoint: mean survival time, dose: 0.19 mg/kg/injection, schedule: Q01DX009 (ip), vehicle: alkali diluted with saline",115 % of control
same,T/C,"endpoint: mean survival time, dose: 0.25 mg/kg/injection, schedule: Q01DX009 (ip), vehicle: sodium bicarbonate",115 % of control
same,T/C,"endpoint: mean survival time, dose: 0.25 mg/kg/injection, schedule: Q03HX008 (ip), vehicle: saline",122 % of control
same,T/C,"endpoint: mean survival time, dose: 0.38 mg/kg/injection, schedule: Q01DX009 (ip), vehicle: alkali diluted with saline",120 % of control
same,T/C,"endpoint: mean survival time, dose: 0.38 mg/kg/injection, schedule: Q01DX009 (ip), vehicle: other",154 % of control
same,T/C,"endpoint: mean survival time, dose: 0.44 mg/kg/injection, schedule: Q01DX009 (ip), vehicle: sodium bicarbonate",156 % of control
same,T/C,"endpoint: mean survival time, dose: 0.47 mg/kg/injection, schedule: Q01DX009 (ip), vehicle: sodium bicarbonate",160 % of control
same,T/C,"endpoint: mean survival time, dose: 0.5 mg/kg/injection, schedule: Q01DX005 (ip), vehicle: sodium bicarbonate",115 % of control and 122 % of control
same,T/C,"endpoint: mean survival time, dose: 0.5 mg/kg/injection, schedule: Q01DX007 (ip), vehicle: other",117 % of control
same,T/C,"endpoint: mean survival time, dose: 0.5 mg/kg/injection, schedule: Q01DX009 (ip), vehicle: saline",159 % of control
same,T/C,"endpoint: mean survival time, dose: 0.75 mg/kg/injection, schedule: Q01DX009 (ip), vehicle: alkali diluted with saline",152 % of control and 163 % of control
same,T/C,"endpoint: mean survival time, dose: 0.75 mg/kg/injection, schedule: Q01DX009 (ip), vehicle: other",154 % of control
same,T/C,"endpoint: mean survival time, dose: 0.78 mg/kg/injection, schedule: Q01DX009 (ip), vehicle: sodium bicarbonate",166 % of control
same,T/C,"endpoint: mean survival time, dose: 1.0 mg/kg/injection, schedule: Q01DX005 (ip), vehicle: sodium bicarbonate",113 % of control
same,T/C,"endpoint: mean survival time, dose: 1.0 mg/kg/injection, schedule: Q01DX009 (ip), vehicle: saline",171 % of control and 183 % of control
same,T/C,"endpoint: mean survival time, dose: 1.3 mg/kg/injection, schedule: Q01DX009 (ip), vehicle: sodium bicarbonate",181 % of control
same,T/C,"endpoint: mean survival time, dose: 1.5 mg/kg/injection, schedule: Q01DX009 (ip), vehicle: alkali diluted with saline",177 % of control and 178 % of control
same,T/C,"endpoint: mean survival time, dose: 1.5 mg/kg/injection, schedule: Q01DX009 (ip), vehicle: other",150 % of control and 164 % of control
same,T/C,"endpoint: mean survival time, dose: 2.0 mg/kg/injection, schedule: Q01DX007 (ip), vehicle: other",164 % of control
same,T/C,"endpoint: mean survival time, dose: 2.0 mg/kg/injection, schedule: Q01DX009 (ip), vehicle: saline",161 % of control
same,T/C,"endpoint: mean survival time, dose: 2.0 mg/kg/injection, schedule: Q02DX005 (ip), vehicle: sodium bicarbonate",170 % of control
same,T/C,"endpoint: mean survival time, dose: 2.0 mg/kg/injection, schedule: Q03DX003 (ip), vehicle: sodium bicarbonate",158 % of control
same,T/C,"endpoint: mean survival time, dose: 2.0 mg/kg/injection, schedule: Q04DX003 (ip), vehicle: sodium bicarbonate",160 % of control
same,T/C,"endpoint: mean survival time, dose: 2.16 mg/kg/injection, schedule: Q01DX009 (ip), vehicle: sodium bicarbonate",179 % of control
same,T/C,"endpoint: mean survival time, dose: 2.3 mg/kg/injection, schedule: Q01DX009 (ip), vehicle: sodium bicarbonate",164 % of control
same,T/C,"endpoint: mean survival time, dose: 2.3 mg/kg/injection, schedule: Q04DX003 (ip), vehicle: saline",114 % of control
same,T/C,"endpoint: mean survival time, dose: 2.5 mg/kg/injection, schedule: Q04DX003 (ip), vehicle: sodium bicarbonate",116 % of control
same,T/C,"endpoint: mean survival time, dose: 4.0 mg/kg/injection, schedule: Q01DX005 (ip), vehicle: sodium bicarbonate",160 % of control
same,T/C,"endpoint: mean survival time, dose: 4.0 mg/kg/injection, schedule: Q04DX003 (ip), vehicle: saline",166 % of control
same,T/C,"endpoint: mean survival time, dose: 4.0 mg/kg/injection, schedule: Q04DX003 (ip), vehicle: sodium bicarbonate",169 % of control
same,T/C,"endpoint: mean survival time, dose: 4.6 mg/kg/injection, schedule: Q04DX003 (ip), vehicle: saline",164 % of control
same,T/C,"endpoint: mean survival time, dose: 5.0 mg/kg/injection, schedule: Q04DX003 (ip), vehicle: alkali diluted with saline",156 % of control
same,T/C,"endpoint: mean survival time, dose: 5.0 mg/kg/injection, schedule: Q04DX003 (ip), vehicle: sodium bicarbonate",159 % of control
same,T/C,"endpoint: mean survival time, dose: 5.4 mg/kg/injection, schedule: Q04DX003 (ip), vehicle: sodium bicarbonate",165 % of control
same,T/C,"endpoint: mean survival time, dose: 8.0 mg/kg/injection, schedule: Q01DX001 (ip), vehicle: saline",116 % of control
same,T/C,"endpoint: mean survival time, dose: 8.0 mg/kg/injection, schedule: Q03DX003 (ip), vehicle: sodium bicarbonate",181 % of control
same,T/C,"endpoint: mean survival time, dose: 9.0 mg/kg/injection, schedule: Q04DX003 (ip), vehicle: sodium bicarbonate",176 % of control
same,T/C,"endpoint: mean survival time, dose: 9.2 mg/kg/injection, schedule: Q04DX003 (ip), vehicle: saline",175 % of control
same,T/C,"endpoint: mean survival time, dose: 10.0 mg/kg/injection, schedule: Q01DX005 (ip), vehicle: sodium bicarbonate",164 % of control
same,T/C,"endpoint: mean survival time, dose: 10.0 mg/kg/injection, schedule: Q04DX003 (ip), vehicle: alkali diluted with saline",154 % of control and 164 % of control
same,T/C,"endpoint: mean survival time, dose: 10.0 mg/kg/injection, schedule: Q04DX004 (ip), vehicle: sodium bicarbonate",165 % of control and 183 % of control
same,T/C,"endpoint: mean survival time, dose: 15.0 mg/kg/injection, schedule: Q04DX004 (ip), vehicle: sodium bicarbonate",168 % of control and 170 % of control
same,T/C,"endpoint: mean survival time, dose: 16.0 mg/kg/injection, schedule: Q04DX003 (ip), vehicle: saline",150 % of control
same,T/C,"endpoint: mean survival time, dose: 25.0 mg/kg/injection, schedule: Q04DX003 (ip), vehicle: sodium bicarbonate",174 % of control
same,T/C,"endpoint: mean survival time, dose: 25.0 mg/kg/injection, schedule: Q04DX004 (ip), vehicle: sodium bicarbonate",175 % of control
same,T/C,"endpoint: mean survival time, dose: 32.0 mg/kg/injection, schedule: Q04DX003 (ip), vehicle: saline",174 % of control
same,T/C,"endpoint: mean survival time, dose: 35.0 mg/kg/injection, schedule: Q04DX003 (ip), vehicle: sodium bicarbonate",175 % of control
same,T/C,"endpoint: mean survival time, dose: 36.8 mg/kg/injection, schedule: Q04DX003 (ip), vehicle: saline",159 % of control
same,T/C,"endpoint: mean survival time, dose: 41.7 mg/kg/injection, schedule: Q04DX003 (ip), vehicle: sodium bicarbonate",116 % of control
same,T/C,"endpoint: mean survival time, dose: 64.0 mg/kg/injection, schedule: Q04DX003 (ip), vehicle: saline",120 % of control
same,T/C,"endpoint: mean survival time, dose: 73.5 mg/kg/injection, schedule: Q04DX003 (ip), vehicle: saline",124 % of control
same,T/C,"endpoint: mean survival time, dose: 128.0 mg/kg/injection, schedule: Q04DX003 (ip), vehicle: saline",120 % of control
same,T/C,"endpoint: median survival time, dose: 0.5 mg/kg/injection, schedule: Q01DX005 (ip), vehicle: sodium bicarbonate",113 % of control
same,T/C,"endpoint: median survival time, dose: 0.52 mg/kg/injection, schedule: Q01DX009 (ip), vehicle: sodium bicarbonate",152 % of control
same,T/C,"endpoint: median survival time, dose: 0.6 mg/kg/injection, schedule: Q06HX024 (ip), vehicle: saline",116 % of control
same,T/C,"endpoint: median survival time, dose: 0.86 mg/kg/injection, schedule: Q01DX009 (ip), vehicle: sodium bicarbonate",165 % of control
same,T/C,"endpoint: median survival time, dose: 1.0 mg/kg/injection, schedule: Q01DX005 (ip), vehicle: sodium bicarbonate",124 % of control
same,T/C,"endpoint: median survival time, dose: 1.25 mg/kg/injection, schedule: Q01DX009 (ip), vehicle: sodium bicarbonate",173 % of control and 178 % of control
same,T/C,"endpoint: median survival time, dose: 1.56 mg/kg/injection, schedule: Q01DX009 (ip), vehicle: sodium bicarbonate",171 % of control
same,T/C,"endpoint: median survival time, dose: 2.5 mg/kg/injection, schedule: Q01DX009 (ip), vehicle: sodium bicarbonate",182 % of control
same,T/C,"endpoint: median survival time, dose: 3.0 mg/kg/injection, schedule: Q01DX005 (ip), vehicle: sodium bicarbonate",160 % of control and 175 % of control
same,T/C,"endpoint: median survival time, dose: 3.0 mg/kg/injection, schedule: Q01DX009 (ip), vehicle: sodium bicarbonate",156 % of control
same,T/C,"endpoint: median survival time, dose: 4.0 mg/kg/injection, schedule: Q01DX005 (ip), vehicle: sodium bicarbonate",168 % of control and 181 % of control
same,T/C,"endpoint: median survival time, dose: 4.5 mg/kg/injection, schedule: Q01DX005 (ip), vehicle: sodium bicarbonate",169 % of control (2×) and 183 % of control
same,T/C,"endpoint: median survival time, dose: 5.4 mg/kg/injection, schedule: Q04DX003 (ip), vehicle: sodium bicarbonate",163 % of control and 168 % of control
same,T/C,"endpoint: median survival time, dose: 6.0 mg/kg/injection, schedule: Q01DX005 (ip), vehicle: sodium bicarbonate",171 % of control and 179 % of control
same,T/C,"endpoint: median survival time, dose: 9.0 mg/kg/injection, schedule: Q04DX003 (ip), vehicle: sodium bicarbonate",175 % of control
same,T/C,"endpoint: median survival time, dose: 12.5 mg/kg/injection, schedule: Q01DX001 (ip), vehicle: sodium bicarbonate",116 % of control
same,T/C,"endpoint: median survival time, dose: 15.0 mg/kg/injection, schedule: Q04DX003 (ip), vehicle: sodium bicarbonate",175 % of control
same,T/C,"endpoint: median survival time, dose: 25.0 mg/kg/injection, schedule: Q04DX003 (ip), vehicle: sodium bicarbonate",173 % of control
same,T/C,"endpoint: median survival time, dose: 72.0 mg/kg/injection, schedule: Q01DX001 (ip), vehicle: sodium bicarbonate",113 % of control and 122 % of control
same,T/C,"endpoint: median survival time, dose: 400.0 mg/kg/injection, schedule: Q01DX001 (ip), vehicle: sodium bicarbonate",177 % of control
CCN(Cc1cnc2nc(N)nc(N)c2n1)c1c(Cl)cc(C(=O)NC(CCC(=O)O)C(=O)O)cc1Cl (centres undefined),T/C,"endpoint: mean survival time, dose: 3.12 mg/kg/injection, schedule: Q01DX009 (ip), vehicle: sodium bicarbonate",117 % of control
same,T/C,"endpoint: mean survival time, dose: 6.25 mg/kg/injection, schedule: Q01DX009 (ip), vehicle: sodium bicarbonate",117 % of control
same,T/C,"endpoint: mean survival time, dose: 100.0 mg/kg/injection, schedule: Q01DX009 (ip), vehicle: sodium bicarbonate",170 % of control
CC1=CC(=C2C=C(C)C(=O)C(C)=C2)C=C(C)C1=O,T/C,"endpoint: mean survival time, dose: 50.0 mg/kg/injection, schedule: Q01DX001 (ip), vehicle: saline with Tween-80",87 % of control
same,T/C,"endpoint: mean survival time, dose: 100.0 mg/kg/injection, schedule: Q01DX001 (ip), vehicle: saline with Tween-80",87 % of control
same,T/C,"endpoint: mean survival time, dose: 200.0 mg/kg/injection, schedule: Q01DX001 (ip), vehicle: saline with Tween-80",91 % of control
